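Interpolation was linear, between the two tested concentrations surrounding the appropriate level; five concentrations were tested over 48 hours in 96-well plates. GI50 is the concentration that inhibits growth by half. TGI marks complete inhibition of growth.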
How the values were obtained:
Assay in all cases: NCI anticancer screen, dose series, 48 h
HS 578T breast = test system: HS 578T breast
EKVX NSCLC = test system: EKVX NSCLC
KM12 colon = test system: KM12 colon
MDA-MB-231 breast = test system: MDA-MB-231 breast
SK-MEL-2 melanoma = test system: SK-MEL-2 melanoma
MALME-3M melanoma = test system: MALME-3M melanoma
RXF 393 renal = test system: RXF 393 renal
IGROV1 ovarian = test system: IGROV1 ovarian
SNB-19 CNS = test system: SNB-19 CNS
SF-268 CNS = test system: SF-268 CNS
HCT-15 colon = test system: HCT-15 colon
UACC-62 melanoma = test system: UACC-62 melanoma
SR leukemia = test system: SR leukemia
MDA-MB-435 = test system: MDA-MB-435
SK-MEL-5 melanoma = test system: SK-MEL-5 melanoma
SW-620 colon = test system: SW-620 colon
MOLT-4 leukemia = test system: MOLT-4 leukemia
786-0 renal = test system: 786-0 renal
SK-MEL-28 melanoma = test system: SK-MEL-28 melanoma
MCF7 breast = test system: MCF7 breast
SN12C renal = test system: SN12C renal
COLO 205 colon = test system: COLO 205 colon
T-47D breast = test system: T-47D breast
CCRF-CEM leukemia = test system: CCRF-CEM leukemia
HCC-2998 colon = test system: HCC-2998 colon
BT-549 breast = test system: BT-549 breast
CAKI-1 renal = test system: CAKI-1 renal
SK-OV-3 ovarian = test system: SK-OV-3 ovarian
OVCAR-8 ovarian = test system: OVCAR-8 ovarian
UO-31 renal = test system: UO-31 renal
SNB-75 CNS = test system: SNB-75 CNS
OVCAR-5 ovarian = test system: OVCAR-5 ovarian
NCI-H522 lung = test system: NCI-H522 lung
UACC-257 melanoma = test system: UACC-257 melanoma
HCT-116 colon = test system: HCT-116 colon
SF-295 CNS = test system: SF-295 CNS
ACHN renal = test system: ACHN renal
DU-145 prostate = test system: DU-145 prostate
NCI/ADR-RES ovarian = test system: NCI/ADR-RES ovarian
U251 CNS = test system: U251 CNS
HOP-62 NSCLC = test system: HOP-62 NSCLC
M14 melanoma = test system: M14 melanoma
NCI-H23 lung = test system: NCI-H23 lung
TK-10 renal = test system: TK-10 renal
RPMI-8226 leukemia = test system: RPMI-8226 leukemia
HL-60(TB) leukemia = test system: HL-60(TB) leukemia
OVCAR-4 ovarian = test system: OVCAR-4 ovarian
SF-539 CNS = test system: SF-539 CNS
HOP-92 NSCLC = test system: HOP-92 NSCLC
K-562 leukemia = test system: K-562 leukemia
HT29 colon = test system: HT29 colon
A549 NSCLC = test system: A549 NSCLC
PC-3 prostate = test system: PC-3 prostate
A498 renal = test system: A498 renal
NCI-H226 lung = test system: NCI-H226 lung
NCI-H460 lung = test system: NCI-H460 lung

Nc1cc(F)ccc1NC(=O)c1ccc(NC(=O)C/C=C/c2cccnc2)cn1
GI50 (HS 578T breast): 1300 nM | TGI (HS 578T breast): > 50000 nM | GI50 (EKVX NSCLC): 2490 nM | TGI (EKVX NSCLC): > 50000 nM | GI50 (KM12 colon): 2800 nM | TGI (KM12 colon): > 50000 nM | GI50 (MDA-MB-231 breast): 8610 nM | TGI (MDA-MB-231 breast): > 50000 nM | GI50 (SK-MEL-2 melanoma): 2010 nM | TGI (SK-MEL-2 melanoma): > 50000 nM | GI50 (MALME-3M melanoma): 465 nM | TGI (MALME-3M melanoma): 4810 nM | GI50 (RXF 393 renal): 938 nM | TGI (RXF 393 renal): 3480 nM | GI50 (IGROV1 ovarian): 804 nM | TGI (IGROV1 ovarian): > 50000 nM | GI50 (SNB-19 CNS): 2150 nM | TGI (SNB-19 CNS): > 50000 nM | GI50 (SF-268 CNS): 2240 nM | TGI (SF-268 CNS): > 50000 nM | GI50 (HCT-15 colon): 667 nM | TGI (HCT-15 colon): > 50000 nM | GI50 (UACC-62 melanoma): 1310 nM | TGI (UACC-62 melanoma): 5950 nM | GI50 (SR leukemia): 876 nM | TGI (SR leukemia): > 50000 nM | GI50 (MDA-MB-435): 1250 nM | TGI (MDA-MB-435): 7180 nM | GI50 (SK-MEL-5 melanoma): 960 nM | TGI (SK-MEL-5 melanoma): 1900 nM | GI50 (SW-620 colon): 208 nM | TGI (SW-620 colon): 12500 nM | GI50 (MOLT-4 leukemia): 908 nM | TGI (MOLT-4 leukemia): > 50000 nM | GI50 (786-0 renal): 2200 nM | TGI (786-0 renal): > 50000 nM | GI50 (SK-MEL-28 melanoma): 1350 nM | TGI (SK-MEL-28 melanoma): 4230 nM | GI50 (MCF7 breast): 1110 nM | TGI (MCF7 breast): 10000 nM | GI50 (SN12C renal): 364 nM | TGI (SN12C renal): > 50000 nM | GI50 (COLO 205 colon): 576 nM | TGI (COLO 205 colon): 10400 nM | GI50 (T-47D breast): 750 nM | TGI (T-47D breast): > 50000 nM | GI50 (CCRF-CEM leukemia): 200 nM | TGI (CCRF-CEM leukemia): > 50000 nM | GI50 (HCC-2998 colon): 1430 nM | TGI (HCC-2998 colon): 6980 nM | GI50 (BT-549 breast): 1300 nM | TGI (BT-549 breast): 8310 nM | GI50 (CAKI-1 renal): 1880 nM | TGI (CAKI-1 renal): 13800 nM | GI50 (SK-OV-3 ovarian): 2580 nM | TGI (SK-OV-3 ovarian): > 50000 nM | GI50 (OVCAR-8 ovarian): 147 nM | TGI (OVCAR-8 ovarian): > 50000 nM | GI50 (UO-31 renal): 1630 nM | TGI (UO-31 renal): > 50000 nM | GI50 (SNB-75 CNS): 794 nM | TGI (SNB-75 CNS): 47300 nM | GI50 (OVCAR-5 ovarian): 781 nM | TGI (OVCAR-5 ovarian): > 50000 nM | GI50 (NCI-H522 lung): 629 nM | TGI (NCI-H522 lung): 30000 nM | GI50 (UACC-257 melanoma): 1650 nM | TGI (UACC-257 melanoma): > 50000 nM | GI50 (HCT-116 colon): 186 nM | TGI (HCT-116 colon): 3420 nM | GI50 (SF-295 CNS): 1800 nM | TGI (SF-295 CNS): 7360 nM | GI50 (ACHN renal): 2210 nM | TGI (ACHN renal): > 50000 nM | GI50 (DU-145 prostate): 1100 nM | TGI (DU-145 prostate): 5160 nM | GI50 (NCI/ADR-RES ovarian): 1310 nM | TGI (NCI/ADR-RES ovarian): > 50000 nM | GI50 (U251 CNS): 1510 nM | TGI (U251 CNS): > 50000 nM | GI50 (HOP-62 NSCLC): 1990 nM | TGI (HOP-62 NSCLC): > 50000 nM | GI50 (M14 melanoma): 563 nM | TGI (M14 melanoma): > 50000 nM | GI50 (NCI-H23 lung): 1680 nM | TGI (NCI-H23 lung): 37900 nM | GI50 (TK-10 renal): 673 nM | TGI (TK-10 renal): 8160 nM | GI50 (RPMI-8226 leukemia): 240 nM | TGI (RPMI-8226 leukemia): 2050 nM | GI50 (HL-60(TB) leukemia): 525 nM | TGI (HL-60(TB) leukemia): > 50000 nM | GI50 (OVCAR-4 ovarian): 2210 nM | TGI (OVCAR-4 ovarian): > 50000 nM | GI50 (SF-539 CNS): 177 nM | TGI (SF-539 CNS): 4000 nM | GI50 (HOP-92 NSCLC): 699 nM | TGI (HOP-92 NSCLC): 10900 nM | GI50 (K-562 leukemia): 302 nM | TGI (K-562 leukemia): > 50000 nM | GI50 (HT29 colon): 1500 nM | TGI (HT29 colon): > 50000 nM | GI50 (A549 NSCLC): 3020 nM | TGI (A549 NSCLC): > 50000 nM | GI50 (PC-3 prostate): 1110 nM | TGI (PC-3 prostate): > 50000 nM | GI50 (A498 renal): 937 nM | TGI (A498 renal): 3370 nM | GI50 (NCI-H226 lung): 2300 nM | TGI (NCI-H226 lung): > 50000 nM | GI50 (NCI-H460 lung): 1430 nM | TGI (NCI-H460 lung): > 50000 nM
